What was measured:
[1] = target: Recombinant AChE (Homo sapiens, UniProt P22303); test: biochemical; conditions: SPR, 25°C, 1:1 Langmuir binding model; read-out: AChE Affinity Kd
Protocol: The experiments for surface plasmon resonance (SPR) interaction were conducted at 25°C using the Biacore T200 system (GE Healthcare, Sweden). Recombinant AChE diluted in sodium acetate buffer (100 mM, pH 4.5) was used as the stock for the following experiments. CM5 sensor chips were coupled with AChE using an amine coupling kit (GE Healthcare, Buckinghamshire, UK). Thereafter, different concentrations of compounds were injected as analytes using PBS-P (10mM phosphate buffer with 2.7 mM KCl and 137 mM NaCl, 0.05% polysorbate 20, […]) as running buffer. For binding assays, the analytes were introduced with a 60 s contact time followed by a 60 s dissociation time at a flow rate of 45 μl/min. The surface was regenerated with 10 mM glycine (pH 3.0) for 30 s. The affinity constants were calculated using the 1:1 Langmuir binding model of Biacore evaluation software (T200 Version 1.0).

[2] = system: primary cortical neurons; test: MTT assay in primary neuron-enriched cells; type: cell-based, Sprague Dawley rats; conditions: 48 h, 1–100 μM
Protocol: Primary microglia were prepared from the cortical tissue of neonatal (1–3 d) Sprague Dawley rats as [Ni and Aschner (2010)] described and primary cortical neurons were isolated from embryos of pregnant Sprague Dawley rats of E-18 ([Zeng et al., 2012]). All experimental manipulations with the animals was reviewed and approved by the animal experimental ethics committee of Peking University. The animals used in the work were performed in accordance with the Animal Care and Use Guidelines of Peking University.
In vitro cytotoxicity was detected using the MTT assay. Cells were treated with different concentrations of circumdatins in the presence or absence of LPS for 48 h. Then, MTT reagent was added to each well and the plates were further incubated at 37°C for 4 h. The absorbance was read at 570 nm using a microplate spectrophotometer (Thermo Scientifics, USA).

[3] = system: BV-2 cells; test: Western blot of iNOS and COX-2 in LPS-induced BV-2 cells; type: cell-based, murine; conditions: 1 μg/ml LPS, 10, 20, 50 μM, 24 h
Protocol: (§1) Total cell proteins were lysed using cell extraction buffer containing phenylmethylsulfonyl ﬂuoride and protease inhibitor cocktail. The cytosolic and nuclear extracts were collected using the Nuclear and Cytosolic extraction kit. The protein extracts were separated on SDS-PAGE and transferred to PVDF membranes (Millipore). The membrane was blocked with 5% nonfat milk for 1 h at room temperature, and incubated with indicated primary antibodies overnight at 4°C. After washing, the membrane was incubated with secondary antibodies conjugated to horseradish peroxidase (Proteintech, USA) at room temperature for 1 h. Then, the proteins of interest were visualized utilizing a chemiluminescence (ECL) detection system. The relative optical densities were analyzed using the Image Master™ 2D Elite software.

[4] = system: ERK1/2-JNK1/2-p38 MAPKs; test: MAPK phosphorylation in LPS-induced BV-2 cells (Western blot); type: cell-based, murine; conditions: 1 μg/ml LPS, 10, 20, 50 μM, 3 h
Protocol: as §1

[5] = system: JaK2/STAT3 signaling pathway; test: JaK2/STAT3 phosphorylation and STAT3 translocation in LPS-induced BV-2 cells; type: cell-based, murine; conditions: 1 μg/ml LPS, 10, 20, 50 μM, 3 h
Protocol: BV2 cells were seeded on glass coverslips and treated with circumdatin D in the presence or absence of LPS for indicated time. After that, the cells were washed twice with PBS and fixed with cold 4% paraformaldehyde for 30 min. Then, the cells were permeabilized with 0.1% Triton X-100 for 10 min and blocked with 5% bovine serum albumin for 1 h. After incubation with primary antibodies overnight at 4°C, the cells were incubated with Alexa Fluor 488-conjugated secondary antibodies (Proteintech, USA) for 1 h at room temperature. Furthermore, Hochest 33342 was added to stain cell nuclei. Images were acquired and analyzed using a confocal microscope (Leica, Germany).
as §1, with “Then, the proteins of interest were visualized utilizing a chemiluminescence (ECL) detection system.” left out

[6] = target: T1, acetylcholinesterase (AChE) from Electrophorus electrics (Electric eel) (Electrophorus electricus, UniProt O42275); test: biochemical; conditions: modified Ellman's colorimetric method; mean ± SD (n = 3)
T1 construct: purchased Sigma Chemical Co. (St Louis, MO, USA)
T1 sequence (O42275 24-633): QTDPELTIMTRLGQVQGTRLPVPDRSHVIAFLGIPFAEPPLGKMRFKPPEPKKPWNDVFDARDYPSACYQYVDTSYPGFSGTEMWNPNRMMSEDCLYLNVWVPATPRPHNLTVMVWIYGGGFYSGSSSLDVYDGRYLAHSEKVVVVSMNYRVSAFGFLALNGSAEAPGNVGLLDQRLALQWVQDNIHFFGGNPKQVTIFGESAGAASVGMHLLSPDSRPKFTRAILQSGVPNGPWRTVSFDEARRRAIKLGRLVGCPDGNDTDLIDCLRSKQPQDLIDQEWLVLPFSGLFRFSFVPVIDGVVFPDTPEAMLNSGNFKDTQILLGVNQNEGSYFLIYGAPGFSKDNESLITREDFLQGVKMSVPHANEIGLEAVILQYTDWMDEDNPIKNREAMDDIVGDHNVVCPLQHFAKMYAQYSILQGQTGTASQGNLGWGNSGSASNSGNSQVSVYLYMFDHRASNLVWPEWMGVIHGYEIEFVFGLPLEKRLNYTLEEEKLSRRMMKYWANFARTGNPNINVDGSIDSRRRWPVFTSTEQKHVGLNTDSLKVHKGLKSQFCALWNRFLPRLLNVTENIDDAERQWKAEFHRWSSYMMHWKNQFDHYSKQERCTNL
Description: Dulbecco's modified Eagle medium (DMEM), α-minimum essential medium (α-MEM) and fetal bovine serum (FBS) were provided by Hyclone (Waltham, USA). 3-(4,5-Dimethylthiazol-2-yl)-2,5-diphenyltetrazolium bromide (MTT), acetylcholinesterase (AChE) from Electrophorus electrics (Electric eel) and lipopolysaccharide (LPS) (Escherichia coli 055: B5) were provided by Sigma Chemical Co. (St Louis, MO, USA). Enzyme-linked immunosorbent assay (ELISA) kits for IL-1β and TNF-α and Griess reagent for nitric oxide (NO) assay kit were provided by ExCell Bio (Shanghai, China). Antibodies for TLR4, MyD88, JNK, p-JNK, p38, p-p38, ERK, p-ERK, IκB, p-IκB, IKK, p-IKK, NF-κB, STAT3、p-STAT3、Jak2, p-Jak2, GAPDH and Histone H3 were purchased from Cell Signaling Technology (Danvers, USA). Antibodies for iNOS and COX-2 were provided by Abcam (Cambridge, UK).
AChE activities in vitro and in vivo were assessed by a modified Ellman's spectrophotometric method ([Szwajgier, 2015]). Briefly, AChE (80 μl) in phosphate buffer (Na2HPO4/NaH2PO4, pH 8.0) and compound (20 μl) diluted in same phosphate buffer were added to 96 microplates as the reaction mixture. The mixture was incubated at 37°C for 30 min before addition of 10 μl 5,5′-dithiobis (2-nitrobenzoic acid) (DTNB) (3 mM) and 10 μl acetylthiocholine iodide (ATCI) (15 mM). After incubation for 20 min, the absorbance was detected at 412 nm using a microplate spectrophotometer (Thermo Scientifics, USA). […] The inhibitory rate of AChE was calculated, and the IC50 values were calculated by GraphPad Prism® 5.0 software (GraphPad Inc., San Diego, USA).

[7] = system: C. elegans CL4176; test: qRT-PCR of ace-1, ace-2, F22E5.6 and ZC239.12 in CL4176; type: in vivo, Caenorhabditis elegans; conditions: CL4176, 36 h post temperature up-shift
Description: Related gene expression levels were detected as [Xin et al. (2013)] described. After treatment, CL4176 worms were collected and total RNA was extracted using TRIzol method. The cDNA was synthesized using cDNA synthesis kit (Invitrogen) according to manual instructions. The mRNA expression of target genes viz. F22E5.6, ZC239.12, ace-1 and ace-2 was quantified in comparison to housekeeping gene F23B2.13 using SYBR green detection method on ABI 7500 system (Applied Biosystems). The relative gene expression was calculated using comparative Ct (ΔΔCt) method. The following primers in Table 2 were used in this study.

Recombinant AChE, sequence (P22303 32-614): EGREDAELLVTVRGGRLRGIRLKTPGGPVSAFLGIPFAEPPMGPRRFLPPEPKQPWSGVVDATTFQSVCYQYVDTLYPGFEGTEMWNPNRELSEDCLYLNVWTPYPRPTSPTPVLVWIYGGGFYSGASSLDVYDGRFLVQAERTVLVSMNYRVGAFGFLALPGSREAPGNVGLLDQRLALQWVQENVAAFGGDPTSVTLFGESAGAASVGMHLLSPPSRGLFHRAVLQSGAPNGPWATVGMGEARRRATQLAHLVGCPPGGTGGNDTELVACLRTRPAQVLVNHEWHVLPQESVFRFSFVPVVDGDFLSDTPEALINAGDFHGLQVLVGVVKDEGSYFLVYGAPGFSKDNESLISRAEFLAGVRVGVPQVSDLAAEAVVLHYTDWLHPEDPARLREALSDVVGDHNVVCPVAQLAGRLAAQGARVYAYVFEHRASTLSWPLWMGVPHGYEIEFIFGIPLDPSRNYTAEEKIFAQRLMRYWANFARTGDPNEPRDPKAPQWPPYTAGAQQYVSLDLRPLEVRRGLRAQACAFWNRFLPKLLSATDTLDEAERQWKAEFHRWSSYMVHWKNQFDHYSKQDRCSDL

COc1ccc2c(c1)C(=O)N1CCC[C@H]1c1nc3ccc(OC)cc3c(=O)n1-2 [circumdatin D]
Kd [1]: 1900 nM | direct toxicity to neurons (MTT) [2]: no direct toxic to neurons | iNOS and COX-2 protein expression [3]: reduced LPS-induced COX-2 and iNOS expression dose-dependently | MAPK (ERK1/2, JNK1/2, p38) phosphorylation [4]: markedly suppressed the phosphorylation | LPS-induced phosphorylation of JaK2 [5]: strongly reduced LPS-induced phosphorylation of JaK2 | phosphorylation and nuclear translocation of STAT3 [5]: effectively inhibited the phosphorylation and translocation of STAT3 | IC50 [6]: 2400 ± 500 nM | AChE genes (ace-1, ace-2) and inflammation related genes (F22E5.6, ZC239.12) expression [7]: inhibited temperature raise-induced AChE and inflammation-associated gene expressions

— article PMC7261837, “Circumdatin D Exerts Neuroprotective Effects by Attenuating LPS-Induced Pro-Inflammatory Responses and Downregulating Acetylcholinesterase Activity In Vitro and In Vivo” (Frontiers in Pharmacology, 2020)
